Assay results reported in patent US20240190855A1 (Relay Therapeutics, Inc., priority 2021, published 2024).

These compounds were tested against T1, CDK2/Cyclin E complex (Homo sapiens, UniProt P24941) (assay: CDK2/Cyclin E fluorescence-based microfluidic mobility shift assay (CDK2 Biochemical Caliper Assay)). Settings: read-out: Biochemical CDK2/CyclinE Caliper IC50.
T1 construct: purchased Eurofins 14-475
Method in brief: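 Wild-type CDK2/Cyclin E was preincubated with compound and ATP for 30 min at RT before the 5-FAM-QSPKKG peptide was added. Final concentrations were 0.1 nM enzyme, 2000 uM ATP, 1.5 uM peptide and 1% DMSO. After 20 hr at RT and EDTA stop, substrate conversion was read by microfluidic mobility shift over an 11-point, 3-fold dilution series.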
Work on `CC(C)c1[nH]ncc1O[C@H]1CO[C@@H](c2cc(Nc3nccn4nccc34)n[nH]2)C1` (single isomer, unassigned) [Example 585] yielded an IC50 of 1 to 100 µM.
`C[C@H]1CC[C@H](C)N1C(=O)O[C@@H]1CO[C@H](c2cc(Nc3ccc4c(c3)C(C)(C)NC4=O)n[nH]2)C1` (single isomer, unassigned) [Example 590] was tested, and the IC50 was at most 0.1 µM.
For `C[C@H]1CC[C@H](C)N1C(=O)O[C@H]1CO[C@@H](c2cc(Nc3ccc4c(c3)C(C)(C)NC4=O)n[nH]2)C1` (single isomer, unassigned) [Example 591], the IC50 was at most 0.1 µM.
`COCc1cc(C(=O)Nc2cc([C@H]3CC[C@@H](c4ncc(C)cn4)C3)[nH]n2)n(C)n1` (single isomer, unassigned) [Example 592] was tested, and the IC50 was 1 to 100 µM.
Compound `COCc1cc(C(=O)Nc2cc([C@@H]3CC[C@H](c4ncc(C)cn4)C3)[nH]n2)n(C)n1` (single isomer, unassigned) [Example 594] has an IC50 of 1 to 100 µM.
Work on `COCc1cc(C(=O)Nc2cc([C@H]3CC[C@H](c4ncc(C)cn4)C3)[nH]n2)n(C)n1` (single isomer, unassigned) [Example 595] yielded an IC50 of 1 to 100 µM.
In the case of `COCc1cc(C(=O)Nc2cc([C@@H]3CC[C@@H](c4ncc(C)cn4)C3)[nH]n2)n(C)n1` (single isomer, unassigned) [Example 596], the IC50 is reported as 1 to 100 µM.
In the case of `COCc1cc(C(=O)Nc2cc([C@H]3CC[C@@H](c4ccc(C)cn4)C3)[nH]n2)n(C)n1` (single isomer, unassigned) [Example 597], the IC50 is reported as 1 to 100 µM.
With `COCc1cc(C(=O)Nc2cc([C@@H]3CC[C@H](c4ccc(C)cn4)C3)[nH]n2)n(C)n1` (single isomer, unassigned) [Example 598] the IC50 was 1 to 100 µM.
`COCc1cc(C(=O)Nc2cc([C@H]3CC[C@H](c4ccc(C)cn4)C3)[nH]n2)n(C)n1` (single isomer, unassigned) [Example 599] was tested, and the IC50 was 1 to 100 µM.
`COCc1cc(C(=O)Nc2cc([C@@H]3CC[C@@H](c4ccc(C)cn4)C3)[nH]n2)n(C)n1` (single isomer, unassigned) [Example 600] was tested, and the IC50 was 1 to 100 µM.
`COCc1cc(C(=O)Nc2cc([C@H]3CC[C@@H](c4cc(C(C)C)ncn4)C3)[nH]n2)n(C)n1` (single isomer, unassigned) [Example 601] showed an IC50 of 1 to 100 µM.
Compound `COCc1cc(C(=O)Nc2cc([C@@H]3CC[C@H](c4cc(C(C)C)ncn4)C3)[nH]n2)n(C)n1` (single isomer, unassigned) [Example 602] has an IC50 of 1 to 100 µM.
`COCc1cc(C(=O)Nc2cc([C@H]3CC[C@H](c4cc(C(C)C)ncn4)C3)[nH]n2)n(C)n1` (single isomer, unassigned) [Example 603] was tested, and the IC50 was 1 to 100 µM.
`COCc1cc(C(=O)Nc2cc([C@@H]3CC[C@@H](c4cc(C(C)C)ncn4)C3)[nH]n2)n(C)n1` (single isomer, unassigned) [Example 604] was tested, and the IC50 was 1 to 100 µM.
`COCc1cc(C(=O)Nc2cc([C@H]3CC[C@@H](c4cccc(C(C)C)n4)C3)[nH]n2)n(C)n1` (single isomer, unassigned) [Example 605] showed an IC50 of 1 to 100 µM.
`COCc1cc(C(=O)Nc2cc([C@@H]3CC[C@H](c4cccc(C(C)C)n4)C3)[nH]n2)n(C)n1` (single isomer, unassigned) [Example 606] showed an IC50 of 1 to 100 µM.
`COCc1cc(C(=O)Nc2cc([C@H]3CC[C@H](c4cccc(C(C)C)n4)C3)[nH]n2)n(C)n1` (single isomer, unassigned) [Example 607] showed an IC50 of 1 to 100 µM.
`COCc1cc(C(=O)Nc2cc([C@@H]3CC[C@@H](c4cccc(C(C)C)n4)C3)[nH]n2)n(C)n1` (single isomer, unassigned) [Example 608] was tested, and the IC50 was 1 to 100 µM.
`COCc1cc(C(=O)Nc2cc([C@H]3CC[C@@H](c4nccc(C(C)C)n4)C3)[nH]n2)n(C)n1` (single isomer, unassigned) [Example 609] was tested, and the IC50 was at most 0.1 µM.
Work on `COCc1cc(C(=O)Nc2cc([C@@H]3CC[C@H](c4nccc(C(C)C)n4)C3)[nH]n2)n(C)n1` (single isomer, unassigned) [Example 610] yielded an IC50 of at most 0.1 µM.
With `COCc1cc(C(=O)Nc2cc([C@H]3CC[C@H](c4nccc(C(C)C)n4)C3)[nH]n2)n(C)n1` (single isomer, unassigned) [Example 611] the IC50 was 1 to 100 µM.
Compound `COCc1cc(C(=O)Nc2cc([C@@H]3CC[C@@H](c4nccc(C(C)C)n4)C3)[nH]n2)n(C)n1` (single isomer, unassigned) [Example 612] has an IC50 of 1 to 100 µM.
Compound `COCc1cc2c(Nc3cc([C@H]4C[C@@H](OC(=O)NC(C)(C)C)CO4)[nH]n3)nccn2n1` (single isomer, unassigned) [Example 617] has an IC50 of at most 0.1 µM.
With `COCc1cc2c(Nc3cc([C@@H]4C[C@H](OC(=O)NC(C)(C)C)CO4)[nH]n3)nccn2n1` (single isomer, unassigned) [Example 618] the IC50 was at most 0.1 µM.
`COCc1cc2c(Nc3cc([C@H]4C[C@@H](OC(=O)N[C@]5(C)CC5(F)F)CO4)[nH]n3)nccn2n1` (single isomer, unassigned) [Example 729] was tested, and the IC50 was at most 0.1 µM.
Compound `COCc1cc2c(Nc3cc([C@H]4C[C@@H](OC(=O)N[C@@]5(C)CC5(F)F)CO4)[nH]n3)nccn2n1` (single isomer, unassigned) [Example 731] has an IC50 of at most 0.1 µM.
`COCc1cc2c(Nc3cc([C@H]4C[C@@H](OC(=O)N[C@@H](C)CC(F)(F)F)CO4)[nH]n3)nccn2n1` (single isomer, unassigned) [Example 739] showed an IC50 of at most 0.1 µM.
`COCc1cc2c(Nc3cc([C@H]4C[C@@H](OC(=O)N[C@H](C)CC(F)(F)F)CO4)[nH]n3)nccn2n1` (single isomer, unassigned) [Example 757] was tested, and the IC50 was at most 0.1 µM.
For `CO[C@H](c1cc(C(=O)Nc2cc([C@H]3C[C@@H](OC(=O)NC4(C)CC4)CO3)[nH]n2)n(C)n1)C(F)(F)F` (single isomer, unassigned) [Example 889], the IC50 was 0.1 to 0.25 µM.
Work on `CO[C@@H](c1cc(C(=O)Nc2cc([C@H]3C[C@@H](OC(=O)NC4(C)CC4)CO3)[nH]n2)n(C)n1)C(F)(F)F` (single isomer, unassigned) [Example 890] yielded an IC50 of at most 0.1 µM.
For `CO[C@@H](C)c1cc2c(Nc3cc([C@H]4C[C@@H](OC(=O)NC5(C)CC5)CO4)[nH]n3)nccn2n1` (single isomer, unassigned) [Example 891], the IC50 was at most 0.1 µM.
Work on `CO[C@H](C)c1cc2c(Nc3cc([C@H]4C[C@@H](OC(=O)NC5(C)CC5)CO4)[nH]n3)nccn2n1` (single isomer, unassigned) [Example 892] yielded an IC50 of at most 0.1 µM.
`Cn1nc(COC(F)(F)F)cc1C(=O)Nc1ncc([C@@H]2C[C@H](OC(=O)NC3(C)CC3)CO2)s1` (single isomer, unassigned) [Example 899] gave an IC50 of at most 0.1 µM.
`COCc1cc(C(=O)Nc2ncc([C@@H]3C[C@H](OC(=O)NC4(C)CC4)CO3)s2)n(C)n1` (single isomer, unassigned) [Example 900] gave an IC50 of at most 0.1 µM.
Compound `Cn1nc(COC(F)(F)F)cc1C(=O)Nc1ncc([C@H]2C[C@@H](OC(=O)NC3(C)CC3)CO2)s1` (single isomer, unassigned) [Example 903] has an IC50 of at most 0.1 µM.
`COCc1cc(C(=O)Nc2ncc([C@H]3C[C@@H](OC(=O)NC4(C)CC4)CO3)s2)n(C)n1` (single isomer, unassigned) [Example 905] was tested, and the IC50 was at most 0.1 µM.
Compound `Cc1cc(CC(=O)Nc2ncc(C3CCCC3)o2)on1` [Example 38] has an IC50 of 1 to 100 µM.
Work on `Cc1cc(CC(=O)Nc2nc(C3CCCC3)c[nH]2)on1` [Example 43] yielded an IC50 of 1 to 100 µM.
For `Cc1cc(CC(=O)Nc2cc(C3(C)CCCC3)[nH]n2)on1` [Example 47], the IC50 was 1 to 100 µM.
Compound `Cc1cc(CC(=O)Nc2cc(C3CCCCC3)[nH]n2)on1` [Example 48] has an IC50 of 1 to 100 µM.
With `Cc1cc(CC(=O)Nc2cc([C@H]3C[C@@H]4C[C@@H]4C3)[nH]n2)on1` [Example 50] the IC50 was 1 to 100 µM.
For `Cc1cc(CC(=O)Nc2cc(N3CC[C@H](COC(=O)NC4(C)CC4)C3)[nH]n2)on1` [Example 51], the IC50 was 1 to 100 µM.
Compound `Cc1cc(CC(=O)Nc2cc(N3CC[C@H]3COC(=O)NC3(C)CC3)[nH]n2)on1` [Example 52] has an IC50 of 1 to 100 µM.
`Cc1cc(CC(=O)Nc2cc(C3CCNCC3)[nH]n2)on1` [Example 54] was tested, and the IC50 was 1 to 100 µM.
Compound `Cc1cc(CC(=O)Nc2cc(C3CC3)[nH]n2)on1` [Example 59] has an IC50 of 1 to 100 µM.
For `Cc1cc(CC(=O)Nc2cn(C3CCCC3)cn2)on1` [Example 60], the IC50 was 1 to 100 µM.
With `Cc1cc(CC(=O)Nc2ncn(C3CCCC3)n2)on1` [Example 61] the IC50 was 1 to 100 µM.
Work on `Cc1cc(CC(=O)Nc2cc(-c3ccccc3)[nH]n2)on1` [Example 62] yielded an IC50 of 1 to 100 µM.
`Cc1cc(CC(=O)Nc2cc(C3CCCC3)[nH]n2)on1` [Example 66] was tested, and the IC50 was 1 to 100 µM.
`Cc1cc(CC(=O)Nc2cc([C@H]3C[C@@H](COC(=O)NC(C)C)C3)[nH]n2)on1` [Example 125] gave an IC50 of at most 0.1 µM.
`Cc1cc(CC(=O)Nc2cc([C@H]3CC[C@@H](COC(=O)NC(C)C)CC3)[nH]n2)on1` [Example 135] showed an IC50 of 1 to 100 µM.
With `Cc1cc(CC(=O)Nc2cc([C@H]3CC[C@@H](OC(=O)N(C(C)C)C(C)C)C3)n[nH]2)on1` [Example 147] the IC50 was at most 0.1 µM.
Work on `Cc1cc(CC(=O)Nc2cc(-c3csc4cncnc34)[nH]n2)on1` [Example 240] yielded an IC50 of 1 to 100 µM.
With `COCc1cc(C(=O)Nc2cc(-c3csc4cncnc34)[nH]n2)n(C)n1` [Example 242] the IC50 was 1 to 100 µM.
`Cc1cc(CC(=O)Nc2cc(C34CCC(CC3)C4)[nH]n2)on1` [Example 244] gave an IC50 of 1 to 100 µM.
Compound `c1cnc(Nc2cc(C34CCC(CC3)C4)[nH]n2)nc1` [Example 314] has an IC50 of 1 to 100 µM.
`Cc1cc(CC(=O)Nc2cc(-c3csc4cnc(NC(C)C)nc34)[nH]n2)on1` [Example 336] showed an IC50 of 0.25 to 1 µM.
`COCc1cc(C(=O)Nc2cc(-c3csc4cnc(NC(C)C)nc34)[nH]n2)n(C)n1` [Example 337] was tested, and the IC50 was 1 to 100 µM.
`Cc1cc(CC(=O)Nc2cc([C@H]3C[C@@H](CC(=O)NC(C)C)C3)[nH]n2)on1` [Example 347] showed an IC50 of 1 to 100 µM.
With `Cc1cc(CC(=O)Nc2cc([C@H]3C[C@H](CC(=O)NC(C)C)C3)[nH]n2)on1` [Example 348] the IC50 was 1 to 100 µM.
In the case of `COCc1cc(C(=O)Nc2cc([C@H]3C[C@@H](CC(=O)NC(C)C)C3)[nH]n2)n(C)n1` [Example 360], the IC50 is reported as 1 to 100 µM.
`COCc1cc(C(=O)Nc2cc([C@H]3C[C@H](CC(=O)NC(C)C)C3)[nH]n2)n(C)n1` [Example 361] gave an IC50 of 1 to 100 µM.
